The source of these data is US9107415B2, “2-(substituted-phenyl)-cyclopentane-1,3-dione compounds, and derivatives thereof” (Syngenta Limited, priority 2011, dated 2015).

Common to all, as to format: in vivo
Assay [1] concerns Avena fatua (AVEFA). Description: Biological Example 1 glasshouse screen, pre-emergence herbicidal activity. The following applies: 312 h, read-out: AVEFA percentage phytotoxicity. On the procedure: (§1) Seeds of a variety of test species were sown in standard soil in pots. After cultivation for one day (pre-emergence) or after 8 days cultivation (post-emergence) under controlled conditions in a glasshouse (at 24/16°C., day/night; 14 hours light; 65% humidity), the plants were sprayed with an aqueous spray solution derived from the formulation of the “technical”(i.e. unformulated) active ingredient in acetone/water (50:50) solution containing 0.5% Tween 20 (polyoxyethylene sorbitan monolaurate, CAS Registry Number 9005-64-5). The test plants were then grown in a glasshouse under controlled conditions in a glasshouse (at 24/16°C., day/night; 14 hours light; 65% humidity) and watered twice daily. After 13 days for pre- or post-emergence, the test was evaluated visually, and an assessed percentage phytotoxicity score given for each herbicidal application on each plant/weed species (with 100%=total damage to plant; 0%=no damage to plant).
(§2) Test plants: Lolium perenne (LOLPE), Alopecurus myosuroides (ALOMY), Echinochloa crus-galli (ECHCG), and Avena fatua (AVEFA). All four of these are grassy monocotyledonous weeds.

The test system of assay [2] is Lolium perenne (LOLPE). Described as above. The note with it: 312 h, read-out: LOLPE percentage phytotoxicity. As for the experimental part:
as §1, §2

Assay [3] concerns Alopecurus myosuroides, blackgrass (ALOMY). Put plainly: Biological Example 3 glasshouse screen, post-emergence herbicidal activity. The note with it: 360 h, read-out: ALOMY percentage phytotoxicity. As for the experimental part: (§3) Test Method: Seeds of a variety of test species are sown in standard soil in pots. After cultivation for one day (pre-emergence) or after 12 days cultivation (post-emergence) under controlled conditions in a glasshouse (warm climate species at 24/18°C., cool climate species at 20/16°C., both at day/night; 16 hours light; 65% humidity), the plants are sprayed with an aqueous spray solution derived from the formulation of the “technical”(i.e. unformulated) active ingredient dissolved in acetone plus IF50, at a 1:20 ratio of “technical”active ingredient to IF50. The IF50 contains about 10.56 weight % Emulsogen EL™(castor oil ethoxylate, CAS Registry number 61791-12-6), about 42.22 weight % N-methylpyrrolidone, and about 42.22 weight % DPG-Monoethyl ether (dipropylene glycol mono-ethyl ether). The adjuvant X-77 (a mixture of alkyl aryl polyoxyethylene glycols and free fatty acids in isopropanol, CAS Registry number 11097-66-8) is added to the aqueous spray solution to form a 0.2% v/v solution, before spraying onto the plants.
(§4) The test plants are then grown in a glasshouse under controlled conditions in a glasshouse (at 24/18°C. or 20/16°C., day/night; 16 hours light; 65% humidity) and watered twice daily. After 15 days after application of the herbicide (15 DAA) (for post-emergence), and after 20 DAA (for pre-emergence), the test is evaluated visually, and an assessed percentage phytotoxicity score is given for each herbicidal application on each plant/weed species (with 100%=total damage to plant; 0%=no damage to plant). […]

Assay [4] has as its system Lolium perenne, perennial ryegrass (LOLPE). The description is as above. The following applies: 360 h, read-out: LOLPE percentage phytotoxicity. As for the experimental part: as §3, §4
Assay [5] concerns Echinochloa crus galli, barnyardgrass (ECHCG). Described as above. The note with it: 360 h, read-out: ECHCG percentage phytotoxicity. As for the experimental part: as §3, §4
The test system of assay [6] is Avena fatua, wild oats (AVEFA). Described as above. The following applies: 360 h, read-out: AVEFA percentage phytotoxicity. On the procedure:
as §3, §4

The test system of assay [7] is Avena fatua (AVEFA). Put plainly: Biological Example 1 glasshouse screen, post-emergence herbicidal activity. The following applies: 312 h, read-out: AVEFA percentage phytotoxicity. As for the experimental part:
as §1, §2

For assay [8], the system named is Lolium perenne (LOLPE). The description is as above. The note with it: 312 h, read-out: LOLPE percentage phytotoxicity. On the procedure:
as §1, §2

Assay [9] relates to Avena fatua (AVEFA). Put plainly: Biological Example 2 post-emergence herbicidal activity (comparative data). As for the experimental part: as §1
(§5) Comparative herbicidal data are given for certain exemplified compounds with 4-(prop-1-ynyl)-2,6-dimethylphenyl or 4-(chloroethynyl)-2,6-dimethylphenyl headgroups, compared to the corresponding comparative compounds with 4-ethynyl-2,6-dimethylphenyl headgroups, as follows.
(§6) Except where specified otherwise, the glasshouse screen for herbicidal activity is substantially the same as that presented in Biological Example 1 hereinabove. The weed abbreviations are as defined in Biological Example 1.

The test system of assay [10] is Alopecurus myosuroides (ALOMY). The assay is described as above. The following applies: 312 h, read-out: ALOMY percentage phytotoxicity. On the procedure: as §1, §5, §6
The subject of assay [11] is Lolium perenne (LOLPE). Described as above. On the procedure:
as §1, §5, §6

Assay [12] concerns Echinochloa crus-galli (ECHCG). The description is as above. The following applies: 312 h, read-out: ECHCG percentage phytotoxicity. As for the experimental part:
as §1, §5, §6

Assay [13] relates to Alopecurus myosuroides (ALOMY). Description: Biological Example 1 glasshouse screen, post-emergence herbicidal activity. The following applies: 312 h, read-out: ALOMY percentage phytotoxicity. As for the experimental part: as §1
(§7) Test plants: Alopecurus myosuroides (ALOMY), Setaria faberi (SETFA), Echinochloa crus-galli (ECHCG), Solanum nigrum (SOLNI), Amaranthus retroflexus (AMARE) and Ipomoea hederacea (IPOHE). ALOMY, SETFA and ECHCG are grassy monocotyledonous weeds. SOLNI, AMARE and IPOHE are dicotyledonous (broadleaved) weeds.
as §2

The subject of assay [14] is Echinochloa crus-galli (ECHCG). The assay is described as above. The note with it: 312 h, read-out: ECHCG percentage phytotoxicity. As for the experimental part: as §1, §7, §2
Assay [15] concerns Triticum aestivum, wheat (TRZAW). Description: Biological Example 3 glasshouse screen, post-emergence, phytotoxicity on wheat. The note with it: 360 h, read-out: TRZAW percentage phytotoxicity. As for the experimental part: as §3
The test plants are then grown in a glasshouse under controlled conditions in a glasshouse (at 24/18°C. or 20/16°C., day/night; 16 hours light; 65% humidity) and watered twice daily. After 15 days after application of the herbicide (15 DAA) (for post-emergence), and after 20 DAA (for pre-emergence), the test is evaluated visually, and an assessed percentage phytotoxicity score is given for each herbicidal application on each plant/weed species (with 100%=total damage to plant; 0%=no damage to plant).
These give an approximate indication of the level of selectivity on wheat for these tested compounds, when a herbicide safener such as cloquintocet-mexyl is not used: […]

Assay [16] deals with Alopecurus myosuroides (ALOMY). Put plainly: Biological Example 1 glasshouse screen, pre-emergence herbicidal activity. The following applies: 312 h, read-out: ALOMY percentage phytotoxicity. As for the experimental part: as §1, §7, §2
Assay [17] relates to Echinochloa crus-galli (ECHCG). The description is as above. The note with it: 312 h, read-out: ECHCG percentage phytotoxicity. On the procedure: as §1, §7, §2
Setting [18] is: application rate 250 g/ha, evaluated after 13 days.
[19] abbreviates: application rate 30 g/ha, 15 DAA, no safener.

Like-named read-outs stand apart in the source and are kept apart here.

As for `CC#Cc1cc(C)c(C2=C(O)CC(CC3CCOCC3)C2=O)c(C)c1` (centres unmarked) [Compound A-4, 2-(2,6-Dimethyl-4-prop-1-ynylphenyl)-4-(tetrahydropyran-4-ylmethyl)cyclopentane-1,3-dione], the pest or weed control at 250 g/ha in the assay with Avena fatua (AVEFA) [1] (setting [18]) is 70%; in the assay on Lolium perenne (LOLPE) [2] (setting [18]), 100%; in the assay with Avena fatua (AVEFA) [7] (setting [18]), 100%; in the assay with Lolium perenne (LOLPE) [8] (setting [18]), 100%; in assay [13] (setting [18]), 90%; in assay [14] (setting [18]) it was 100%. The pest or weed control at 250 g/ha in [16] (setting [18]) and in assay [17] (setting [18]) was 100% each time. Moreover, the pest or weed control at 30 g/ha came to 100% in assay [3] (setting [19]); 100% in assay [4] (setting [19]); 100% in [5] (setting [19]); 80% in assay [6] (setting [19]); 80% in assay [15] (setting [19]). The AVEFA percentage phytotoxicity with Avena fatua (AVEFA) [9] (15.625 g/ha application rate) and in the assay on Avena fatua (AVEFA) [9] (62.5 g/ha application rate) was 100% throughout. The results for the pest or weed control at 15.625 g/ha in assay [10] (15.625 g/ha application rate) and in assay [12] (15.625 g/ha application rate) were 70% and 100%, respectively. The pest or weed control at 62.5 g/ha stood at 90% in [10] (62.5 g/ha application rate) and 100% in assay [12] (62.5 g/ha application rate). In addition, the LOLPE percentage phytotoxicity in the assay on Lolium perenne (LOLPE) [11] (15.625 g/ha application rate) and in the assay on Lolium perenne (LOLPE) [11] (62.5 g/ha application rate) was 100% in each case.
With `C#Cc1cc(C)c(C2=C(O)CC(Cc3ccccn3)C2=O)c(C)c1` (centres unmarked) [X-1, reference compound], the AVEFA percentage phytotoxicity is 50% with Avena fatua (AVEFA) [9] (15.625 g/ha application rate) and 90% with Avena fatua (AVEFA) [9] (62.5 g/ha application rate). Further, the pest or weed control at 15.625 g/ha in assay [10] (15.625 g/ha application rate) amounted to 60%; in assay [12] (15.625 g/ha application rate) it was 70%. Besides, the pest or weed control at 62.5 g/ha in assay [10] (62.5 g/ha application rate) was found to be 100%; in assay [12] (62.5 g/ha application rate), 80%. Further, the LOLPE percentage phytotoxicity in the assay on Lolium perenne (LOLPE) [11] (15.625 g/ha application rate) amounted to 60%; in the assay with Lolium perenne (LOLPE) [11] (62.5 g/ha application rate), 100%.
`CC#Cc1cc(C)c(C2=C(O)CC(Cc3ccccn3)C2=O)c(C)c1` (racemic) [Compound A-2, rac-2-(2,6-Dimethyl-4-prop-1-ynylphenyl)-4-(pyridin-2-ylmethyl)cyclopentane-1,3-dione]: the pest or weed control at 250 g/ha with Avena fatua (AVEFA) [1] was 70%; in the assay on Lolium perenne (LOLPE) [2], 100%; in the assay with Avena fatua (AVEFA) [7], 100%; in the assay with Lolium perenne (LOLPE) [8], 100%; in assay [13], 100%; in assay [14] it was 100%. The pest or weed control at 250 g/ha in assay [16] and in [17] was 100% throughout. Also, the pest or weed control at 30 g/ha in assay [3] was determined as 90%; in [4], 90%; in assay [5] it was 100%; in [6], 70%. The AVEFA percentage phytotoxicity with Avena fatua (AVEFA) [9] (15.625 g/ha application rate) is 80%; in the assay on Avena fatua (AVEFA) [9] (62.5 g/ha application rate), 90%. In addition, the pest or weed control at 15.625 g/ha in assay [10] turned out to be 90%; in assay [12] it was 100%. The pest or weed control at 62.5 g/ha in assay [10] and in assay [12] was 100% throughout. Also, the LOLPE percentage phytotoxicity in the assay with Lolium perenne (LOLPE) [11] (15.625 g/ha application rate) and in the assay with Lolium perenne (LOLPE) [11] (62.5 g/ha application rate) was 100% throughout. The plant injury at 30 g/ha in assay [15] was determined as 30%.
